Data taken from patent US20230331715A1, “SPIRO[3.3]HEPTANE DERIVATIVES FOR THE TREATMENT AND PROPHYLAXIS OF HEPATITIS B VIRUS INFECTION” (priority 2020, published 2023).
Read-outs that look alike come from different tables or passages of the source.

Legend:
Type in all cases: cell-based
HBsAg = test: PHH HBV natural infection assay, HBsAg (alphalisa)
Description: (§1) Detailed procedures regarding primary human hepatocyte (PHH) HBV natural infection assay are described as below. One tube of frozen PHH (10 million cells) is thawed in 37° C. water bath and then transferred to 20 mL of PHH thawing medium (Sigma, InVitroGRO HT Medium, Cat. S03319) with gently mixing. The cells were then centrifuged at […] for 5 min, the supernatant was discarded and the tube was refilled with 25 mL of PHH plating medium (Sigma, InVitroGRO CP Medium, Cat. S03317). The tube was shaken very gently to re-suspend all cells, and then 50 µl of cells were transferred to each well 384-well collagen I coated plate with appropriate liquid handling equipment, e.g. Integra VIAFLO384 or Agilent Bravo. The cells were then cultured for 24 hours in a cell incubator. For HBV infection, after PHH attachment on the culture plate, the plating medium was removed and replenished with PHH culture medium containing HBV virus. The PHH culture medium was prepared with Dulbecco’s Modified Eagle Medium (DMEM)/F12 (1: 1 in volume ratio) containing 10% fetal bovine serum (Gibco, Cat. 10099141), 5 ng/mL human epidermal growth factor (Gibco, Cat.PHG0311L), 20 ng/mL dexamethasone (Sigma, Cat.D4902-100mg), 250 ng/mL human recombinant insulin (Gibco, Cat.41400045) and 100 U/mL penicillin. HBV virus at 200 genome equivalent (GE) per cell with 4% PEG8000 (Sigma, Cat.P1458) containing culture medium were added to the PHH culture medium for infection. The cells were then cultured for 24 hours in cell incubator. Then the cell culture supernatant was removed. The HBV-infected PHH were cultured with sandwich culture method with PHH culture medium containing 1% DMSO and 0.25 mg/mL matrix gel for 72 hours. The supernatant was then refreshed with PHH culture medium containing different concentrations of testing compounds for two times with 72-hour interval. At the end of treatment, the supernatant was collected for viral markers measurements, including HBsAg, HBeAg, HBV DNA and cytotoxicity. HBsAg and HBeAg were detected using alphalisa method using their specific antibodies. For HBV DNA detection, HBV DNA Quantitative Fluorescence Diagnostic Kit (Sansure Biotech Inc.) was used following the manufacture’s protocol. Cytotoxicity was determined using Cell Counting Kit-8 (CCK8, Dojindo Molecular Technologies, Inc.).
(§2) The compounds of the present invention were tested for their capacity to inhibit HBsAg and HBeAg as described herein.

HBeAg = test: PHH HBV natural infection assay, HBeAg (alphalisa)
Description: as §1, §2

[1] = Cytotoxicity in PHH natural infection assay (Cell Counting Kit-8); details: human; HBV-infected PHH, CCK8, compound refreshed two times with 72-hour interval
Description: as §1

[2] = read-out: HBsAg IC50, HBV-infected PHH, culture supernatant, compound refreshed two times with 72-hour interval, alphalisa
[3] = read-out: HBeAg IC50, HBV-infected PHH, culture supernatant, compound refreshed two times with 72-hour interval, alphalisa
[4] = Hepatitis B virus, 72 h, read-out: HBsAg IC50, HBV-infected PHH, culture supernatant, compound refreshed two times with 72-hour interval, alphalisa
[5] = Hepatitis B virus, 72 h, read-out: HBeAg IC50, HBV-infected PHH, culture supernatant, compound refreshed two times with 72-hour interval, alphalisa

SMILES	IC50 (HBsAg; [2]) [µM]	IC50 (HBeAg; [3]) [µM]	CC50 at 144 h [1] [µM]	IC50 (HBsAg; [4]) [µM]	IC50 (HBeAg; [5]) [µM]
[H][C@]1(NC(=O)c2ccnc(S(C)(=O)=O)c2)C[C@]2(C1)C[C@]([H])(c1nc3cc(Cl)ccc3s1)C2 (single isomer, unassigned) [Example 54-b, (Ra)-N-[6-(5-chloro-1,3-benzothiazol-2-yl)spiro[3.3]heptan-2-yl]-2-methylsulfonyl-pyridine-4-carboxamide]	0.28	0.23	15.3	–	–
O=C(NC1CC2(C1)CC(c1nc3cc(Cl)ccc3s1)C2)c1ccnc(NC2CC2)c1 (stereo not drawn) [Example 45, N-[6-(5-chloro-1,3-benzothiazol-2-yl)spiro[3.3]heptan-2-yl]-2-(cyclopropylamino)pyridine-4-carboxamide]	–	–	> 10	6.08	5.18
NC(=O)c1cc(C(=O)NC2CC3(C2)CC(c2nc4cc(Cl)ccc4s2)C3)ccn1 (stereo not drawn) [Example 11, N4-[6-(5-chloro-1,3-benzothiazol-2-yl)spiro[3.3]heptan-2-yl]pyridine-2,4-dicarboxamide]	–	–	> 50	4.06	6.81
CN1CCC(C(=O)NC2CC3(C2)CC(c2nc4cc(Cl)ccc4s2)C3)CC1=O (stereo not drawn) [Example 32, N-[6-(5-chloro-1,3-benzothiazol-2-yl)spiro[3.3]heptan-2-yl]-1-methyl-2-oxo-piperidine-4-carboxamide]	–	–	> 10	6.11	4.13
[H][C@]1(NC(=O)c2cc(C(N)=O)ncn2)C[C@@]2(C1)C[C@]([H])(c1nc3cc(Cl)ccc3s1)C2 (single isomer, unassigned) [Example 56-a, (Sa)-N6-[6-(5-chloro-1,3-benzothiazol-2-yl)spiro[3.3]heptan-2-yl]pyrimidine-4,6-dicarboxamide]	–	–	> 10	3.29	2.47
N#Cc1cc(C(=O)NC2CC3(C2)CC(c2nc4cc(Cl)ccc4s2)C3)ccn1 (stereo not drawn) [Example 5, N-[6-(5-chloro-1,3-benzothiazol-2-yl)spiro[3.3]heptan-2-yl]-2-cyano-pyridine-4-carboxamide]	–	–	> 10	3.47	2.92
O=C(NC1CC2(C1)CC(c1nc3cc(Cl)ccc3s1)C2)c1ccnc(N2CCCCC2)c1 (stereo not drawn) [Example 51, N-[6-(5-chloro-1,3-benzothiazol-2-yl)spiro[3.3]heptan-2-yl]-2-(1-piperidyl)pyridine-4-carboxamide]	–	–	> 10	5.51	4.35
N=S(=O)(c1cc(C(=O)NC2CC3(C2)CC(c2nc4cc(Cl)ccc4s2)C3)ccn1)C1CC1 (stereo not drawn) [Example 41, N-[6-(5-chloro-1,3-benzothiazol-2-yl)spiro[3.3]heptan-2-yl]-2-(cyclopropylsulfonimidoyl)pyridine-4-carboxamide]	–	–	> 10	0.9	0.67
CS(=O)(=O)Cc1cc(C(=O)NC2CC3(C2)CC(c2nc4cc(Cl)ccc4s2)C3)ccn1 (stereo not drawn) [Example 7, N-[6-(5-chloro-1,3-benzothiazol-2-yl)spiro[3.3]heptan-2-yl]-2-(methylsulfonylmethyl)pyridine-4-carboxamide]	–	–	> 10	3.33	3.09
Nc1nc(C(=O)NC2CC3(C2)CC(c2nc4cc(Cl)ccc4s2)C3)cs1 (stereo not drawn) [Example 19, 2-amino-N-[6-(5-chloro-1,3-benzothiazol-2-yl)spiro[3.3]heptan-2-yl]thiazole-4-carboxamide]	–	–	31.5	7.55	6.83
[H][C@]1(NC(=O)c2ccnc(S(=O)(=O)C3CC3)c2)C[C@]2(C1)C[C@]([H])(c1nc3cc(Cl)ccc3s1)C2 (single isomer, unassigned) [Example 55-b, (Ra)-N-[6-(5-chloro-1,3-benzothiazol-2-yl)spiro[3.3]heptan-2-yl]-2-cyclopropylsulfonyl-pyridine-4-carboxamide]	0.54	0.4	11.6	–	–
